Data taken from paper PMC12397248, “Proanthocyanidins inhibit CYP1B1 through mixed-type kinetics and stable binding in molecular dynamics simulations” (Scientific Reports, 2025).

T1: Cytochrome P450 1B1 (CYP1B1) (Homo sapiens, UniProt Q16678)
T1 sequence (Q16678 1-543): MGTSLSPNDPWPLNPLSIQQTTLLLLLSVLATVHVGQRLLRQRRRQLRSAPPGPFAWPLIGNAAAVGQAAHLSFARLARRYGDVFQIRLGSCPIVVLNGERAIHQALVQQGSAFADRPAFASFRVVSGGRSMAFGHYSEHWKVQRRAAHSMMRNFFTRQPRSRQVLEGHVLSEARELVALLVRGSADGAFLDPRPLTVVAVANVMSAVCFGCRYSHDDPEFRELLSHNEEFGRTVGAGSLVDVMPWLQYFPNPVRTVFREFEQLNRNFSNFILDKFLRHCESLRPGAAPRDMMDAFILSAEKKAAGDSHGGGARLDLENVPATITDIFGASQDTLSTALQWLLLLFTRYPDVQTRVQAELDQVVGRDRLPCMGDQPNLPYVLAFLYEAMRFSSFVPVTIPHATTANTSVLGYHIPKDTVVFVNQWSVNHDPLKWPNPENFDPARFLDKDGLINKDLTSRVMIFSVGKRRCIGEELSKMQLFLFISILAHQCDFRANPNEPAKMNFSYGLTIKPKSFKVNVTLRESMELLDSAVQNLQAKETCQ


What was measured:
[1] = biological target: T1, Cytochrome P450 1B1 (CYP1B1); experiment: recombinant human CYP1B1 ethoxyresorufin O-deethylation fluorescence assay; Michaelis-Menten and Lineweaver-Burk kinetics; assay type: biochemical
[2] = substrate: CCOc1ccc2nc3ccc(=O)cc-3oc2c1; experiment: Michaelis-Menten kinetics of O-deethylation by recombinant CYP1B1 (Km); assay type: biochemical, Homo sapiens; conditions: heme; NADPH

IC50 [1] | Molecule | Km [2]
2530 ± 10 nM | proanthocyanidin [PA] | –
– | Cytochrome P450 1B1 (CYP1B1) (Homo sapiens) (protein) MGTSLSPNDPWPLNPLSIQQTTLLLLLSVLATVHVGQRLLRQRRRQLRSAPPGPFAWPLIGNAAAVGQAAHLSFARLARRYGDVFQIRLGSCPIVVLNGERAIHQALVQQGSAFADRPAFASFRVVSGGRSMAFGHYSEHWKVQRRAAHSMMRNFFTRQPRSRQVLEGHVLSEARELVALLVRGSADGAFLDPRPLTVVAVANVMSAVCFGCRYSHDDPEFRELLSHNEEFGRTVGAGSLVDVMPWLQYFPNPVRTVFREFEQLNRNFSNFILDKFLRHCESLRPGAAPRDMMDAFILSAEKKAAGDSHGGGARLDLENVPATITDIFGASQDTLSTALQWLLLLFTRYPDVQTRVQAELDQVVGRDRLPCMGDQPNLPYVLAFLYEAMRFSSFVPVTIPHATTANTSVLGYHIPKDTVVFVNQWSVNHDPLKWPNPENFDPARFLDKDGLINKDLTSRVMIFSVGKRRCIGEELSKMQLFLFISILAHQCDFRANPNEPAKMNFSYGLTIKPKSFKVNVTLRESMELLDSAVQNLQAKETCQ | 0.236 ± 0.074 mM
